Data: the supplement of paper PMC10627819

What was measured:
Assay in all cases: Bliss interaction score (quartile over a dose matrix) (fitness difference); higher = more antagonism (negative = synergy)
B. subtilis 168 = system: B. subtilis 168
Summary of the method: (§1)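 OD595 was read at entry into stationary phase and expressed relative to the robust mean of the no-drug wells on the same plate, capped at 1. The resulting ratio is the fitness value. The Bliss score, observed fitness minus product-based expected fitness with single-drug fitness inferred from combinations, is summarised by quartiles over technical, biological and donor/recipient replicates.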

S. pneumoniae D39V = system: S. pneumoniae D39V
Summary of the method: as §1

S. aureus Newman = system: S. aureus Newman
Summary of the method: as §1

S. aureus DSM 20231 = system: S. aureus DSM 20231
Summary of the method: as §1
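Note: first quartile when negative (synergy) and third quartile when positive (antagonism).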

| Compound | Bliss interaction score (B. subtilis 168) | Bliss interaction score (S. pneumoniae D39V) | Bliss interaction score (S. aureus Newman) | Bliss interaction score (S. aureus DSM 20231) | Bliss interaction score (B. subtilis 168; main component drawn) | Bliss interaction score (S. pneumoniae D39V; main component drawn) | Bliss interaction score (S. aureus Newman; main component drawn) | Bliss interaction score (S. aureus DSM 20231; main component drawn) |
| --- | --- | --- | --- | --- | --- | --- | --- | --- |
| O=C(O[C@@H]1Cc2c(O)cc(O)cc2O[C@@H]1c1cc(O)c(O)c(O)c1)c1cc(O)c(O)c(O)c1 [EGCG] + CC[C@H]1OC(=O)[C@H](C)[C@@H](O[C@H]2C[C@@](C)(OC)[C@@H](O)[C@H](C)O2)[C@H](C)[C@@H](O[C@@H]2O[C@H](C)C[C@H](N(C)C)[C@H]2O)[C@](C)(O)C[C@@H](C)C(=O)[C@H](C)[C@@H](O)[C@]1(C)O [Erythromycin] | 0.0527 | 0.0597 | -0.0582 | -0.0558 |  |  |  |  |
| O=C(O[C@@H]1Cc2c(O)cc(O)cc2O[C@@H]1c1cc(O)c(O)c(O)c1)c1cc(O)c(O)c(O)c1 [EGCG] + CN[C@H](CC(C)C)C(=O)N[C@H]1C(=O)N[C@@H](CC(N)=O)C(=O)N[C@H]2C(=O)N[C@H]3C(=O)N[C@H](C(=O)N[C@H](C(=O)O)c4cc(O)cc(O)c4-c4cc3ccc4O)[C@H](O[C@H]3C[C@](C)(N)[C@@H](O)[C@H](C)O3)c3ccc(c(Cl)c3)Oc3cc2cc(c3O[C@@H]2O[C@H](CO)[C@@H](O)[C@H](O)[C@H]2O[C@H]2C[C@](C)(NCc3ccc(-c4ccc(Cl)cc4)cc3)[C@@H](O)[C@H](C)O2)Oc2ccc(cc2Cl)[C@H]1O [Oritavancin] | 0.0249 | 0.0545 | 0.318 | 0.176 |  |  |  |  |
| O=C(O[C@@H]1Cc2c(O)cc(O)cc2O[C@@H]1c1cc(O)c(O)c(O)c1)c1cc(O)c(O)c(O)c1 [EGCG] + CO[C@@]12[C@H](COC(N)=O)C3=C(C(=O)C(C)=C(N)C3=O)N1C[C@@H]1N[C@@H]12 [MitomycinC] | -0.0639 | 0.0987 | 0.051 | -0.0345 |  |  |  |  |
| O=C(O[C@@H]1Cc2c(O)cc(O)cc2O[C@@H]1c1cc(O)c(O)c(O)c1)c1cc(O)c(O)c(O)c1 [EGCG] + Oc1cc(Cl)ccc1Oc1ccc(Cl)cc1Cl [Triclosan] | -0.0336 | -0.0791 | 0.0222 | 0.0962 |  |  |  |  |
| CC(=O)O[C@H]1C[C@@]2(C)[C@@H](C[C@@H](O)[C@H]3[C@@]4(C)CC[C@@H](O)[C@@H](C)[C@@H]4CC[C@@]32C)/C1=C(\CCC=C(C)C)C(=O)O [Fusidic acid] + C/C(=C\C(=O)OCCCCCCCCC(=O)O)C[C@@H]1OC[C@H](C[C@@H]2O[C@H]2[C@@H](C)[C@H](C)O)[C@@H](O)[C@H]1O [Pseudomonic acid] | -0.0331 | 0.1 | 0.031 | 0.0339 |  |  |  |  |
| CC(=O)O[C@H]1C[C@@]2(C)[C@@H](C[C@@H](O)[C@H]3[C@@]4(C)CC[C@@H](O)[C@@H](C)[C@@H]4CC[C@@]32C)/C1=C(\CCC=C(C)C)C(=O)O [Fusidic acid] + CC1(C)S[C@@H]2[C@H](NC(=O)Cc3ccccc3)C(=O)N2[C@H]1C(=O)O [PenicillinG] | 0.0421 | 0.0666 | -0.0384 | 0.0382 |  |  |  |  |
| CC(=O)O[C@H]1C[C@@]2(C)[C@@H](C[C@@H](O)[C@H]3[C@@]4(C)CC[C@@H](O)[C@@H](C)[C@@H]4CC[C@@]32C)/C1=C(\CCC=C(C)C)C(=O)O [Fusidic acid] + CC1=C\[C@@H](O)CC(=O)Cc2nc(co2)C(=O)N2CCC=C2C(=O)O[C@H](C(C)C)[C@H](C)/C=C/C(=O)NC\C=C\1 [Virginiamycin M1] | 0.0743 | 0.0996 | -0.044 | 0.0345 |  |  |  |  |
| CC(=O)O[C@H]1C[C@@]2(C)[C@@H](C[C@@H](O)[C@H]3[C@@]4(C)CC[C@@H](O)[C@@H](C)[C@@H]4CC[C@@]32C)/C1=C(\CCC=C(C)C)C(=O)O [Fusidic acid] + CC(=O)NC[C@H]1CN(c2ccc(N3CCOCC3)c(F)c2)C(=O)O1 [Linezolid] | -0.141 | -0.1 | -0.0198 | -0.0285 |  |  |  |  |
| CC(=O)O[C@H]1C[C@@]2(C)[C@@H](C[C@@H](O)[C@H]3[C@@]4(C)CC[C@@H](O)[C@@H](C)[C@@H]4CC[C@@]32C)/C1=C(\CCC=C(C)C)C(=O)O [Fusidic acid] + CC(C1CCC(C(O1)OC2C(CC(C(C2O)OC3C(C(C(CO3)(C)O)NC)O)N)N)N)NC [Gentamicin] |  |  |  |  | -0.0712 | -0.0713 | 0.0572 | 0.034 |
| CC(=O)O[C@H]1C[C@@]2(C)[C@@H](C[C@@H](O)[C@H]3[C@@]4(C)CC[C@@H](O)[C@@H](C)[C@@H]4CC[C@@]32C)/C1=C(\CCC=C(C)C)C(=O)O [Fusidic acid] + CCC(C)C1C(=O)NC(=C)C(=O)NC(C(=O)NC(CSCC(C(=O)N1)NC(=O)/C(=C/C)/NC(=O)C(C(C)CC)N)C(=O)NC2C(SCC(NC(=O)CNC(=O)C3CCCN3C2=O)C(=O)NC(CCCCN)C(=O)NC4C(SCC(NC(=O)CNC(=O)C(NC(=O)C(NC(=O)C(NC(=O)CNC4=O)C)CC(C)C)CCSC)C(=O)NC(CC(=O)N)C(=O)NC(CCSC)C(=O)NC(CCCCN)C(=O)NC5C(SCC6C(=O)NC(C(=O)NC(CSC(C(C(=O)N6)NC(=O)C(NC5=O)C)C)C(=O)NC(CO)C(=O)NC(C(C)CC)C(=O)NC(CC7=CN=CN7)C(=O)NC(C(C)C)C(=O)NC(=C)C(=O)NC(CCCCN)C(=O)O)CC8=CN=CN8)C)C)C)CC(C)C [Nisin] |  |  |  |  | -0.0332 | -0.0281 | -0.0346 | 0.0299 |
| CC(=O)O[C@H]1C[C@@]2(C)[C@@H](C[C@@H](O)[C@H]3[C@@]4(C)CC[C@@H](O)[C@@H](C)[C@@H]4CC[C@@]32C)/C1=C(\CCC=C(C)C)C(=O)O [Fusidic acid] + CCCCCCCCCC(=O)N[C@@H]1[C@H]([C@@H]([C@H](O[C@H]1OC2=C3C=C4C=C2OC5=C(C=C(C=C5)[C@H]([C@H]6C(=O)N[C@@H](C7=C(C(=CC(=C7)O)OC8[C@H]([C@H]([C@@H]([C@H](O8)CO)O)O)O)C9=C(C=CC(=C9)[C@H](C(=O)N6)NC(=O)[C@@H]4NC(=O)[C@@H]1C2=CC(=CC(=C2)OC2=C(C=CC(=C2)[C@H](C(=O)N[C@H](CC2=CC(=C(O3)C=C2)Cl)C(=O)N1)N)O)O)O)C(=O)O)O[C@H]1[C@@H]([C@H]([C@@H]([C@H](O1)CO)O)O)NC(=O)C)Cl)CO)O)O [Teicoplanin] |  |  |  |  | -0.0459 | 0.0761 | -0.0424 | 0.0374 |
